From PMC8252049 (Chemmedchem, 2021) come the findings set out here.

Data set [1] deals with T1, rat liver TrxR1 (cytosolic thioredoxin reductase) (Rattus norvegicus, UniProt O89049).
T1 sequence (O89049 1-499): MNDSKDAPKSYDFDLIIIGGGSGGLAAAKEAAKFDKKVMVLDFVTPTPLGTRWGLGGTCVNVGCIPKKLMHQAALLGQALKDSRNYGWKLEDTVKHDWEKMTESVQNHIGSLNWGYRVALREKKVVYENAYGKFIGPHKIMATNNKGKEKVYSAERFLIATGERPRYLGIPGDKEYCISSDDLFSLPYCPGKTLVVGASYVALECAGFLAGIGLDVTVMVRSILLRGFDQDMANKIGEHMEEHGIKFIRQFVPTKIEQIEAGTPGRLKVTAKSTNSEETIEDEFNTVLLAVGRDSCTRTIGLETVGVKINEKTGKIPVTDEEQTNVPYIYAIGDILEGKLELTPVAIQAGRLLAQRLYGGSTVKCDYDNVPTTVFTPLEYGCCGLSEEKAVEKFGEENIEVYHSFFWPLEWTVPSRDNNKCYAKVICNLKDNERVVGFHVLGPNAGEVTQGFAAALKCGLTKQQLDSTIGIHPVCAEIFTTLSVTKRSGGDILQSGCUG
Description: DTNB reduction, absorbance […] nm. Type of data set: biochemical.

Data set [2] addresses rat liver TrxR2 (mitochondrial thioredoxin reductase) (Rattus norvegicus, UniProt Q9Z0J5). Nature of the data set: DTNB reduction, absorbance […] nm. The format is biochemical.

Sequence of rat liver TrxR2 (mitochondrial thioredoxin reductase) (Q9Z0J5 37-526): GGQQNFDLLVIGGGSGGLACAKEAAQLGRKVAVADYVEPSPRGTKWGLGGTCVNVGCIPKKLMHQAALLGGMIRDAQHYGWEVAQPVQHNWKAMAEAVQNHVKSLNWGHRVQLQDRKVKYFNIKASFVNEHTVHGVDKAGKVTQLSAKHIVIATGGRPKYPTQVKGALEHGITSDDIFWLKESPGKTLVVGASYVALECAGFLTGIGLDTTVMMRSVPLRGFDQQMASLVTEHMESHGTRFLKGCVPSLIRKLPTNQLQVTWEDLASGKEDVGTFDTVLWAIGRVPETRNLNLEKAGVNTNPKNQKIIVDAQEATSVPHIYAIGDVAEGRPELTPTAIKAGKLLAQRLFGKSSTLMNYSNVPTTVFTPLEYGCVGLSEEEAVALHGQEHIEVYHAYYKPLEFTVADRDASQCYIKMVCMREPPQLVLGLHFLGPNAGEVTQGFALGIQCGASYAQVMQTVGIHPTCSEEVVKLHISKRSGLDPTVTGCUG

As to `[NH2][Pt]([NH2])([Cl])[Cl]` [cisplatin], the IC50 (commonly the point on the concentration scale where inhibition reaches its midpoint) is 22.5 nM in data set [1] and 405 nM in data set [2].
Regarding trans-[PtBr2(NHBz2)(PPh3)] [compound 2], in data set [1], the IC50 is 2.59 nM.
In data set [1], “trans-[PtBr2(NHBzBu)(PPh3)] [compound 1]” had a half-maximal inhibitory concentration (IC50) of 2.27 nM.
